Results reported in ChEMBL document CHEMBL1275577, “Study of the in vitro activities of rifaximin and comparator agents against 536 anaerobic intestinal bacteria from the perspective of potential utility in pathology involving bowel flora” (Antimicrob Agents Chemother, 2009).
Values after ≈ are worked out from the molar mass of the structure shown.

What was measured:
Type in all cases: functional
Blautia luti = assay: Antimicrobial activity against Ruminococcus luti by Wadsworth agar dilution method
Bacteroides fragilis = assay: Antimicrobial activity against Bacteroides fragilis by Wadsworth agar dilution method
Peptoniphilus harei = assay: Antimicrobial activity against Peptoniphilus harei by Wadsworth agar dilution method
[Clostridium] innocuum = Antimicrobial activity against Clostridium innocuum by Wadsworth agar dilution method
Clostridium perfringens = assay: Antimicrobial activity against Clostridium perfringens by Wadsworth agar dilution method
Schaalia meyeri = assay: Antimicrobial activity against Actinomyces meyeri by Wadsworth agar dilution method
Clostridium subterminale = assay: Antimicrobial activity against Clostridium subterminale by Wadsworth agar dilution method
Atopobium minutum = assay: Antimicrobial activity against Atopobium minutum by Wadsworth agar dilution method
Ruminococcus gnavus = assay: Antimicrobial activity against Ruminococcus gnavus by Wadsworth agar dilution method; conditions: Mediterraneibacter gnavus
Eubacterium limosum = assay: Antimicrobial activity against Eubacterium limosum by Wadsworth agar dilution method
[1] = test system: Lacticaseibacillus rhamnosus; assay: Antimicrobial activity against Lactobacillus rhamnosus by Wadsworth agar dilution method
[2] = Antimicrobial activity against Bifidobacterium pseudocatenulatum by Wadsworth agar dilution method
[3] = test system: Lactiplantibacillus plantarum; assay: Antimicrobial activity against Lactobacillus plantarum by Wadsworth agar dilution method
[4] = test system: Desulfovibrio desulfuricans; assay: Antimicrobial activity against Desulfovibrio desulfuricans by Wadsworth agar dilution method
Parvimonas micra = assay: Antimicrobial activity against Peptostreptococcus micros by Wadsworth agar dilution method
[5] = test system: Limosilactobacillus fermentum; assay: Antimicrobial activity against Lactobacillus fermentum by Wadsworth agar dilution method
Clostridium sp. = assay: Antimicrobial activity against Clostridium sp. by Wadsworth agar dilution method
Clostridium scindens = assay: Antimicrobial activity against Clostridium scindens by Wadsworth agar dilution method
Fusobacterium mortiferum = assay: Antimicrobial activity against Clostridium rectum by Wadsworth agar dilution method
[6] = test system: Peptostreptococcus anaerobius; assay: Antimicrobial activity against Peptostreptococcus anaerobius by Wadsworth agar dilution method
Bacteroides uniformis = assay: Antimicrobial activity against Bacteroides uniformis by Wadsworth agar dilution method
[7] = test system: Limosilactobacillus reuteri; assay: Antimicrobial activity against Lactobacillus reuteri by Wadsworth agar dilution method
[8] = test system: Ruminococcus flavefaciens; assay: Antimicrobial activity against Ruminococcus flavefaciens by Wadsworth agar dilution method
Clostridium sporogenes = assay: Antimicrobial activity against Clostridium sporogenes by Wadsworth agar dilution method
Actinomyces viscosus = assay: Antimicrobial activity against Actinomyces viscosus by Wadsworth agar dilution method
Collinsella aerofaciens = assay: Antimicrobial activity against Colinsella aerofaciens by Wadsworth agar dilution method
Thomasclavelia ramosa = assay: Antimicrobial activity against Clostridium ramosum by Wadsworth agar dilution method
Prevotella corporis = assay: Antimicrobial activity against Prevotella corporis by Wadsworth agar dilution method
[9] = test system: Parabacteroides goldsteinii; assay: Antimicrobial activity against Parabacteroides goldsteinii by Wadsworth agar dilution method
Clostridium beijerinckii = assay: Antimicrobial activity against Clostridium beijerinckii by Wadsworth agar dilution method
Hoylesella loescheii = assay: Antimicrobial activity against Prevotella loescheii by Wadsworth agar dilution method
[10] = test system: Porphyromonas asaccharolytica; assay: Antimicrobial activity against Porphyromonas asaccharolyticus by Wadsworth agar dilution method
Ruminococcus lactaris = assay: Antimicrobial activity against Ruminococcus lactaris by Wadsworth agar dilution method
[11] = test system: Prevotella melaninogenica; assay: Antimicrobial activity against Prevotella melaninogenica by Wadsworth agar dilution method
Eubacterium rectale = assay: Antimicrobial activity against Eubacterium rectale by Wadsworth agar dilution method; conditions: Agathobacter rectalis
Fusobacterium varium = assay: Antimicrobial activity against Fusobacterium varium by Wadsworth agar dilution method
[12] = test system: Lactobacillus catenaformis; assay: Antimicrobial activity against Lactobacillus catenaformis by Wadsworth agar dilution method; conditions: Eggerthia catenaformis
Clostridium disporicum = assay: Antimicrobial activity against Clostridium disporicum by Wadsworth agar dilution method
Blautia producta = assay: Antimicrobial activity against Ruminococcus productus by Wadsworth agar dilution method
Bacteroides ovatus = assay: Antimicrobial activity against Bacteroides ovatus by Wadsworth agar dilution method
Clostridium fallax = assay: Antimicrobial activity against Clostridium fallax by Wadsworth agar dilution method
Bilophila wadsworthia = assay: Antimicrobial activity against Bilophila wadsworthia by Wadsworth agar dilution method in presence of 1% pyruvic acid
Eubacterium cylindroides = assay: Antimicrobial activity against Eubacterium cylindroides by Wadsworth agar dilution method; conditions: Faecalitalea cylindroides
[13] = test system: Pseudoramibacter alactolyticus; assay: Antimicrobial activity against Eubacterium alactolyticum by Wadsworth agar dilution method
Bacteroides stercoris = assay: Antimicrobial activity against Bacteroides stercoris by Wadsworth agar dilution method
Bifidobacterium longum = assay: Antimicrobial activity against Bifidobacterium longum by Wadsworth agar dilution method
[14] = test system: Clostridium paraputrificum; assay: Antimicrobial activity against Clostridium paraputrificum by Wadsworth agar dilution method

SMILES: CN[C@H](CC(C)C)C(=O)N[C@H]1C(=O)N[C@@H](CC(N)=O)C(=O)N[C@H]2C(=O)N[C@H]3C(=O)N[C@H](C(=O)N[C@H](C(=O)O)c4cc(O)cc(O)c4-c4cc3ccc4O)[C@H](O)c3ccc(c(Cl)c3)Oc3cc2cc(c3O[C@@H]2O[C@H](CO)[C@@H](O)[C@H](O)[C@H]2O[C@H]2C[C@](C)(N)[C@H](O)[C@H](C)O2)Oc2ccc(cc2Cl)[C@H]1O [VANCOMYCIN]
- MIC50 (Blautia luti): 0.5 µg/mL (≈ 0.345 µM)
- MIC90 (Blautia luti): 1 µg/mL (≈ 0.69 µM)
- MIC50 (Bacteroides fragilis): 64 µg/mL (≈ 44.2 µM)
- MIC90 (Bacteroides fragilis): 128 µg/mL (≈ 88.3 µM)
- MIC50 (Peptoniphilus harei): 0.5 µg/mL (≈ 0.345 µM)
- MIC90 (Peptoniphilus harei): 1 µg/mL (≈ 0.69 µM)
- MIC ([Clostridium] innocuum): 16 µg/mL (≈ 11 µM)
- MIC50 ([Clostridium] innocuum): 16 µg/mL (≈ 11 µM)
- MIC90 ([Clostridium] innocuum): 256 µg/mL (≈ 177 µM)
- MIC50 (Clostridium perfringens): 1 µg/mL (≈ 0.69 µM)
- MIC90 (Clostridium perfringens): 1 µg/mL (≈ 0.69 µM)
- MIC50 (Schaalia meyeri): 1 µg/mL (≈ 0.69 µM)
- MIC90 (Schaalia meyeri): 64 µg/mL (≈ 44.2 µM)
- MIC50 (Clostridium subterminale): 1 µg/mL (≈ 0.69 µM)
- MIC90 (Clostridium subterminale): 4 µg/mL (≈ 2.76 µM)
- MIC50 (Atopobium minutum): 1 µg/mL (≈ 0.69 µM)
- MIC90 (Atopobium minutum): 64 µg/mL (≈ 44.2 µM)
- MIC50 (Ruminococcus gnavus): 0.5 µg/mL (≈ 0.345 µM)
- MIC90 (Ruminococcus gnavus): 1 µg/mL (≈ 0.69 µM)
- MIC50 (Eubacterium limosum): 1 µg/mL (≈ 0.69 µM)
- MIC90 (Eubacterium limosum): 64 µg/mL (≈ 44.2 µM)
- MIC50 [1]: 1 µg/mL (≈ 0.69 µM)
- MIC90 [1]: 64 µg/mL (≈ 44.2 µM)
- MIC50 [2]: 1 µg/mL (≈ 0.69 µM)
- MIC90 [2]: 64 µg/mL (≈ 44.2 µM)
- MIC50 [3]: 1 µg/mL (≈ 0.69 µM)
- MIC90 [3]: 64 µg/mL (≈ 44.2 µM)
- MIC50 [4]: > 1020 µg/mL
- MIC90 [4]: > 1020 µg/mL
- MIC50 (Parvimonas micra): 0.5 µg/mL (≈ 0.345 µM)
- MIC90 (Parvimonas micra): 1 µg/mL (≈ 0.69 µM)
- MIC50 [5]: 1 µg/mL (≈ 0.69 µM)
- MIC90 [5]: 64 µg/mL (≈ 44.2 µM)
- MIC50 (Clostridium sp.): 1 µg/mL (≈ 0.69 µM)
- MIC90 (Clostridium sp.): 4 µg/mL (≈ 2.76 µM)
- MIC50 (Clostridium scindens): 1 µg/mL (≈ 0.69 µM)
- MIC90 (Clostridium scindens): 4 µg/mL (≈ 2.76 µM)
- MIC50 (Fusobacterium mortiferum): 1 µg/mL (≈ 0.69 µM)
- MIC90 (Fusobacterium mortiferum): 4 µg/mL (≈ 2.76 µM)
- MIC50 [6]: 0.5 µg/mL (≈ 0.345 µM)
- MIC90 [6]: 1 µg/mL (≈ 0.69 µM)
- MIC (Bacteroides uniformis): 64 µg/mL (≈ 44.2 µM)
- MIC50 (Bacteroides uniformis): 64 µg/mL (≈ 44.2 µM)
- MIC90 (Bacteroides uniformis): 128 µg/mL (≈ 88.3 µM)
- MIC50 [7]: 1 µg/mL (≈ 0.69 µM)
- MIC90 [7]: 64 µg/mL (≈ 44.2 µM)
- MIC50 [8]: 0.5 µg/mL (≈ 0.345 µM)
- MIC90 [8]: 1 µg/mL (≈ 0.69 µM)
- MIC50 (Clostridium sporogenes): 1 µg/mL (≈ 0.69 µM)
- MIC90 (Clostridium sporogenes): 4 µg/mL (≈ 2.76 µM)
- MIC50 (Actinomyces viscosus): 1 µg/mL (≈ 0.69 µM)
- MIC90 (Actinomyces viscosus): 64 µg/mL (≈ 44.2 µM)
- MIC50 (Collinsella aerofaciens): 1 µg/mL (≈ 0.69 µM)
- MIC90 (Collinsella aerofaciens): 64 µg/mL (≈ 44.2 µM)
- MIC50 (Thomasclavelia ramosa): 1 µg/mL (≈ 0.69 µM)
- MIC90 (Thomasclavelia ramosa): 4 µg/mL (≈ 2.76 µM)
- MIC50 (Prevotella corporis): 128 µg/mL (≈ 88.3 µM)
- MIC90 (Prevotella corporis): 256 µg/mL (≈ 177 µM)
- MIC50 [9]: 128 µg/mL (≈ 88.3 µM)
- MIC90 [9]: 128 µg/mL (≈ 88.3 µM)
- MIC50 (Clostridium beijerinckii): 1 µg/mL (≈ 0.69 µM)
- MIC90 (Clostridium beijerinckii): 4 µg/mL (≈ 2.76 µM)
- MIC50 (Hoylesella loescheii): 128 µg/mL (≈ 88.3 µM)
- MIC90 (Hoylesella loescheii): 256 µg/mL (≈ 177 µM)
- MIC50 [10]: 4 µg/mL (≈ 2.76 µM)
- MIC90 [10]: 8 µg/mL (≈ 5.52 µM)
- MIC50 (Ruminococcus lactaris): 0.5 µg/mL (≈ 0.345 µM)
- MIC90 (Ruminococcus lactaris): 1 µg/mL (≈ 0.69 µM)
- MIC50 [11]: 128 µg/mL (≈ 88.3 µM)
- MIC90 [11]: 256 µg/mL (≈ 177 µM)
- MIC50 (Eubacterium rectale): 1 µg/mL (≈ 0.69 µM)
- MIC90 (Eubacterium rectale): 64 µg/mL (≈ 44.2 µM)
- MIC50 (Fusobacterium varium): 256 µg/mL (≈ 177 µM)
- MIC90 (Fusobacterium varium): > 1020 µg/mL
- MIC50 [12]: 1 µg/mL (≈ 0.69 µM)
- MIC90 [12]: 64 µg/mL (≈ 44.2 µM)
- MIC50 (Clostridium disporicum): 1 µg/mL (≈ 0.69 µM)
- MIC90 (Clostridium disporicum): 4 µg/mL (≈ 2.76 µM)
- MIC50 (Blautia producta): 0.5 µg/mL (≈ 0.345 µM)
- MIC90 (Blautia producta): 1 µg/mL (≈ 0.69 µM)
- MIC50 (Bacteroides ovatus): 128 µg/mL (≈ 88.3 µM)
- MIC90 (Bacteroides ovatus): 128 µg/mL (≈ 88.3 µM)
- MIC50 (Clostridium fallax): 1 µg/mL (≈ 0.69 µM)
- MIC90 (Clostridium fallax): 4 µg/mL (≈ 2.76 µM)
- MIC (Bilophila wadsworthia): 64 µg/mL
- MIC50 (Bilophila wadsworthia): 64 µg/mL
- MIC90 (Bilophila wadsworthia): 128 µg/mL
- MIC50 (Eubacterium cylindroides): 1 µg/mL (≈ 0.69 µM)
- MIC90 (Eubacterium cylindroides): 64 µg/mL (≈ 44.2 µM)
- MIC50 [13]: 1 µg/mL (≈ 0.69 µM)
- MIC90 [13]: 64 µg/mL (≈ 44.2 µM)
- MIC (Bacteroides stercoris): 64 µg/mL (≈ 44.2 µM)
- MIC50 (Bacteroides stercoris): 64 µg/mL (≈ 44.2 µM)
- MIC90 (Bacteroides stercoris): 128 µg/mL (≈ 88.3 µM)
- MIC50 (Bifidobacterium longum): 1 µg/mL (≈ 0.69 µM)
- MIC90 (Bifidobacterium longum): 64 µg/mL (≈ 44.2 µM)
- MIC50 [14]: 1 µg/mL (≈ 0.69 µM)
- MIC90 [14]: 4 µg/mL (≈ 2.76 µM)
